Experimental findings from PMC3224213, “Bacterial membrane activity of α-peptide/β-peptoid chimeras: Influence of amino acid composition and chain length on the activity against different bacterial strains” (BMC Microbiology, 2011) are described below.

Assay [1] relates to E. coli. In words: Killing by chimera with or without EDTA pre-treatment. Type of assay: cell-based, Escherichia coli. The text has this: (§1) Although there was no systematic difference in the MIC values between Gram-positive and -negative bacteria, we speculated that the Gram-negative outer membrane could act as a barrier to the penetration of AMPs, since polymyxin B resistance in S. marcescens has been linked to induced changes in the amount and composition of lipopolysaccharide (LPS) in the outer membrane. Moreover, similar resistance-conferring membrane alterations have also been seen for other bacteria in response to polymyxin B treatment. Accordingly, we studied how a membrane-destabilizing pre-treatment of S. marcescens, E. coli and S. aureus with the divalent metal cation-chelating agent EDTA would affect the killing caused by chimera 1. In these experiments we used a non-lethal 0.5 mM concentration of EDTA together with the non-lethal 1.5 μM concentration of the tested AMP analogue. […] In contrast, cell numbers of both S. marcescens and E. coli were reduced with 4-5 log from an initial value of log ~5.5 within the first 4 hours (not shown) upon treatment with a sub-lethal EDTA concentration together with the chimera.

For assay [2], the system named is S. aureus. In words: ATP leakage bioluminescence assay. The class given is cell-based, Staphylococcus aureus. The note with it: for intracellular ATP concentration: HEPES buffer pH 7.0, two independent experiments; for dose for the immediate maximum ATP release: 500 μg/mL expressed in μM; for minimum chimera dose for the maximum immediate ATP release: doses 100, 250, 500, 1000 μg/mL, immediate release only, data not shown. The method, then:
(§2) Pore formation as caused by peptide addition was determined by measuring ATP leakage from the bacterial cell using a bioluminescence assay. The assay was used to estimate differences between sub-typical chimeras 1, 2 and 3 on S. aureus and S. marcescens and to evaluate the effect of chain length of mixed type chimeras 4a, 4b and 4c on S. aureus. In brief, bacteria were grown in TSB at 37°C for 24 hours and then re-inoculated in TSB at 37°C for 6-8 hours until an absorbance at 546 nm of 2.5 for S. aureus and 2.0 for S. marcescens and then harvested (10 min at 2,000 × g). The bacteria were grown to a high absorbance since a high concentration of bacteria was necessary in order to get a measurable response in the ATP leakage assay. Cells were washed once in 50 mM potassium phosphate buffer (pH 7.0) and once in 50 mM HEPES buffer (pH 7.0), before the pellet was resuspended in HEPES buffer to an OD546 ~ 10, and then stored on ice. Before chimera addition bacteria were pre-incubated with 0.2% (w/v) glucose to energize the cells. In general a chimera dose of 1000 μg/mL (corresponding to 280-552 μM for all chimeras) was used for all assays; however, for determining dose response curves additional doses of 100 (28-55 μM), 250 (71-137 μM) and 500 (140-276 μM) μg/mL were tested, and only the immediate release was noted. Total ATP and extracellular ATP were determined with a luminometer […]. Intracellular volumes of S. aureus and S. marcescens (0.85 μm^3 and 1.7 μm^3, respectively) were subtracted from the total volume before calculating the extracellular ATP concentration; the intracellular ATP concentration could then be calculated from this and the total ATP. ATP leakage kinetics was determined on a bacterial suspension prepared as above. Samples were taken at time 0, 5, 10, 20, 30 and 60 minutes and viable counts determined. Both the ATP leakage assay and killing kinetics performed under the same assay conditions were performed in two independent experiments.

Assay [3] relates to S. marcescens. In words: Killing by chimera with or without EDTA pre-treatment. Type of assay: cell-based, Serratia marcescens.
Excerpt: as §1

Assay [4] relates to S. marcescens. Briefly: ATP leakage bioluminescence assay. Type of assay: cell-based, Serratia marcescens. Particulars: 1000 μg/mL chimera. As for the experimental part:
as §2

The subject of assay [5] is S. aureus. Briefly: Killing by chimera with or without EDTA pre-treatment. Type of assay: cell-based, Staphylococcus aureus.
Excerpt: as §1

The test system of assay [6] is S. aureus 8325. Briefly: Killing kinetics (time-kill). The class given is cell-based, Staphylococcus aureus. As for the experimental part: (§3) In vitro time-kill curves for chimera 1, 2 and 3 were determined against S. aureus 8325 (MIC μM: chimera 1 5.9; chimera 2 2.8; chimera 3 18.7) and Serratia marcescens ATCC 8100 (MIC μM: chimera 1 46.8; chimera 2 45.5; chimera 3 150.0). These two bacterial strains represent organisms susceptible and tolerant to the chimeras, respectively. The bactericidal effect of the three chimeras was tested at MIC in two independent experiments; additionally the effect of chimera 2 was tested at ¼ and 1/2 times MIC. In brief, a suspension prepared from fresh overnight colonies as described above was transferred to 2 mL PBS or cation-adjusted MHB with chimera added (from a 10 × MIC solution) to give a similar bacterial cell density as employed in the MIC determination; the resulting suspension was then incubated at 37°C, 300 rpm. Samples for colony determination were taken at 0, 1, 2, 4, 6 and 8 hours after addition and transferred to a ten-fold dilution row. Colony counts were determined after incubation for 24 hours at 37°C.

The subject of assay [7] is Serratia marcescens ATCC 8100. Briefly: Killing kinetics (time-kill). Type of assay: cell-based. Particulars: S. marcescens. As for the experimental part:
as §3

The test system of assay [8] is S. aureus. Briefly: Time-kill under the conditions of the ATP leakage assay. The class given is cell-based, Staphylococcus aureus. Particulars: 1000 μg/mL chimera, same conditions as ATP assay, within the first 20 minutes, initial log ~9.5 per mL. The method, then: as §2
Assay [9] concerns twelve food-borne and clinical bacterial strains. The class given is cell-based. The method, then: Initial activity experiments were carried out with twelve strains from seven bacterial species representing common laboratory strains and clinical strains derived from both food-borne and nosocomial infections (Table 1). Stock cultures were stored at -80°C in 4% (w/v) glycerol, 0.5% (w/v) glucose, 2% (w/v) skimmed milk powder and 3% (w/v) tryptone soy powder. All experiments were carried out with bacteria incubated for one night (i.e. approximately 18 hours) at 37°C. Experiments were performed in cation-adjusted Mueller Hinton II broth (MHB) (Becton Dickinson 212322) adjusted to pH 7.4 or Tryptone Soy Broth (TSB) (Oxoid CM0129) for the ATP leakage assays. Brain Heart Infusion (BHI) (CM1135) with agar (VWR 20768.292) 1.5% as gelling agent was used throughout for colony plating.
The Minimum Inhibitory Concentration (MIC) of the chimeras was determined against the spectrum of bacteria using the microdilution method according to guidelines of the Clinical and Laboratory Standards Institute (CLSI). Chimera 1:2 serial dilutions were prepared from 1,024 μg/mL stock solutions to give a final range of 512-0.5 μg/mL in the wells. This corresponds to a final range of 144 to 0.14 μM for the heaviest chimera (i.e. chimera 4c) and of 282 to 0.27 μM for the lightest chimera (i.e. chimera 4a). Colonies grown overnight (i.e. approximately 18 hours) on BHI agar were suspended in 0.9% saline to give a turbidity of 0.13 at OD546 (approximately 1 × 10^8 CFU/mL), and then diluted in MHB pH 7.4 to a final concentration of 5 × 10^5 CFU/mL in each well. Following CLSI guidelines the media for testing of Listeria monocytogenes strains were supplemented with 2.5% lysed horse blood. Polypropylene plates (Nunc 442587) were used to minimize peptide binding and incubation time was 18-20 hours at 37°C. MIC was determined in a minimum of two technical replicates as the lowest concentration of the peptide analogue where no visible growth was found. The Minimum Bactericidal Concentration (MBC) was determined by plating 10 μL of the suspension from the first three wells without growth on BHI agar and incubating these for 24 hours at 37°C. MBC was the lowest concentration at which a 99.9% reduction in CFU/mL was observed. Activity is expressed in μmol/L to enable a direct comparison of analogues with different length (= size).

Setting [10] is: 1.5 μM chimera alone, data not shown.
[11] abbreviates: 0.5 mM EDTA and 1.5 μM chimera, within the first 4 hours, initial log ~5.5, not shown.
Setting [12] is: range over strains, summary of Table 2.

In the case of `CC(=O)N[C@@H](CCCCNC(=N)N)C(=O)N(CCC(=O)N[C@@H](CCCCNC(=N)N)C(=O)N(CCC(=O)N[C@@H](CCCCNC(=N)N)C(=O)N(CCC(=O)N[C@@H](CCCCNC(=N)N)C(=O)N(CCC(=O)N[C@@H](CCCCNC(=N)N)C(=O)N(CCC(=O)N[C@@H](CCCCNC(=N)N)C(=O)N(CCC(N)=O)Cc1ccccc1)Cc1ccccc1)Cc1ccccc1)Cc1ccccc1)Cc1ccccc1)Cc1ccccc1` [Chimera 1], the figures for the “reduction in the number of viable cells, chimera alone” value in assay [1] (setting [10]), in assay [3] (setting [10]) and in [5] (setting [10]) were 1.5 log, 1.5 log and 0.5 log, respectively. Further, the “reduction of cell numbers, EDTA together with chimera” value in assay [1] (setting [11]) and in [3] (setting [11]) was 4-5 log each time. For the same compound, the “ATP leakage (in words)” value in assay [2] (1000 μg/mL chimera) and in assay [4] was “caused leakage of ATP” throughout. Also, the “intracellular ATP concentration” value is reported as “rapidly approached zero” in [2] (1000 μg/mL chimera) and “rapidly approached zero” in assay [4] (HEPES buffer pH 7.0, two independent experiments). For the same compound, the “extracellular ATP concentration” value is ~ 20 μM in [2] (1000 μg/mL chimera, during the first minutes, HEPES buffer pH 7.0, OD546 ~ 10, two independent experiments) and ~ 5 μM in assay [4] (during the first minutes, HEPES buffer pH 7.0, OD546 ~ 10, two independent experiments). Further, the “viable cells, EDTA then chimera versus chimera only” value in assay [5] (0.5 mM EDTA and 1.5 μM chimera) is “No discernable difference”.

With `CC(=O)N[C@@H](CCCCNC(=N)N)C(=O)N(CCC(=O)N[C@@H](CCCCNC(=N)N)C(=O)N(CCC(=O)N[C@@H](CCCCNC(=N)N)C(=O)N(CCC(=O)N[C@@H](CCCCNC(=N)N)C(=O)N(CCC(=O)N[C@@H](CCCCNC(=N)N)C(=O)N(CCC(=O)N[C@@H](CCCCNC(=N)N)C(=O)N(CCC(N)=O)[C@@H](C)c1ccccc1)[C@@H](C)c1ccccc1)[C@@H](C)c1ccccc1)[C@@H](C)c1ccccc1)[C@@H](C)c1ccccc1)[C@@H](C)c1ccccc1` [Chimera 2], the “ATP leakage (in words)” value in assay [2] (1000 μg/mL chimera) and in assay [4] was “caused leakage of ATP” in each case. Besides, the “number of viable cells at MIC in MHB” value in assay [6] (at MIC in MHB, 37°C, two independent experiments) is “did not decrease until after 6 hours”. The “decrease in viable cell numbers” value in assay [6] (at MIC in PBS, after 4 hours) is given as 2 log. Also, in assay [7] (at MIC in MHB, within the first hour, 37°C, two independent experiments), the “decrease in the number of viable bacteria” value was 2 log. In assay [7] (at MIC in PBS, 37°C), the “viable cells after treatment in PBS” value was “no viable cells remained after the first hour”. In [7] (¼ MIC in MHB), the “effect on cell number at ¼ MIC” value was “reduction in cell number”.

Turning to `CC(=O)N[C@@H](CCCCN)C(=O)N(CCC(=O)N[C@@H](CCCCNC(=N)N)C(=O)N(CCC(=O)N[C@@H](CCCCN)C(=O)N(CCC(=O)N[C@@H](CCCCNC(=N)N)C(=O)N(CCC(N)=O)[C@@H](C)c1ccccc1)[C@@H](C)c1ccccc1)[C@@H](C)c1ccccc1)[C@@H](C)c1ccccc1` [Chimera 4a], the “reduction in number of viable cells” value in assay [8] is listed as “no killing was observed”. Moreover, in assay [9] (ratio of MIC to that of chimera 4c, over the strains of Table 2), the “MIC values times higher than those of chimera 4c” value is listed as 15-70 times. Moreover, in assay [2], the “dose for the immediate maximum ATP release” value turned out to be 276 µM and the “minimum chimera dose for the maximum immediate ATP release” value was 500 µg/mL. Besides, in assay [2] (1000 μg/mL chimera), the “immediate ATP release” value is reported as “approximately 15 μM” and the “intracellular ATP concentration” value was “approx. 5 μM”.

Take `CC(=O)N[C@@H](CCCCN)C(=O)N(CCC(=O)N[C@@H](CCCCNC(=N)N)C(=O)N(CCC(=O)N[C@@H](CCCCN)C(=O)N(CCC(=O)N[C@@H](CCCCNC(=N)N)C(=O)N(CCC(=O)N[C@@H](CCCCN)C(=O)N(CCC(=O)N[C@@H](CCCCNC(=N)N)C(=O)N(CCC(N)=O)[C@@H](C)c1ccccc1)[C@@H](C)c1ccccc1)[C@@H](C)c1ccccc1)[C@@H](C)c1ccccc1)[C@@H](C)c1ccccc1)[C@@H](C)c1ccccc1` [Chimera 4b]: in [8], the “reduction in number of viable cells” value was “no killing was observed”. Further, in assay [2] (1000 μg/mL chimera), the “ATP leakage (in words)” value is “same leakage pattern as induced by chimera 4a”.

Turning to `CC(=O)N[C@@H](CCCCN)C(=O)N(CCC(=O)N[C@@H](CCCCNC(=N)N)C(=O)N(CCC(=O)N[C@@H](CCCCN)C(=O)N(CCC(=O)N[C@@H](CCCCNC(=N)N)C(=O)N(CCC(=O)N[C@@H](CCCCN)C(=O)N(CCC(=O)N[C@@H](CCCCNC(=N)N)C(=O)N(CCC(=O)N[C@@H](CCCCN)C(=O)N(CCC(=O)N[C@@H](CCCCNC(=N)N)C(=O)N(CCC(N)=O)[C@@H](C)c1ccccc1)[C@@H](C)c1ccccc1)[C@@H](C)c1ccccc1)[C@@H](C)c1ccccc1)[C@@H](C)c1ccccc1)[C@@H](C)c1ccccc1)[C@@H](C)c1ccccc1)[C@@H](C)c1ccccc1` [Chimera 4c], the “reduction in number of viable cells” value in assay [8] stood at 2 log. In addition, in assay [9] (setting [12]), the “MIC values against the clinical strains of E. coli, S. aureus and K. pneumoniae” value was in the range of 2.2 to 9.0 µM; the “MIC values against the food-borne pathogens L. monocytogenes and Vibro spp.” value was 1.1 to 2.2 µM. In addition, in [2], the “dose for the immediate maximum ATP release” value was found to be 140 µM and the “minimum chimera dose for the maximum immediate ATP release” value was 500 µg/mL. In addition, in assay [2] (1000 μg/mL chimera), the “immediate ATP release” value is “approximately 15 μM” and the “intracellular ATP concentration” value is “immediately depleted of intracellular ATP”.
